# According to patent US8288364B2, “Botanically derived composition and a process thereof” (Indus Biotech Private Limited, priority 2008, dated 2012):
# Tests used:
# [1] = system: Diabetes Induced with Alloxan; assay: Blood sugar levels in early stages of diabetes induced with alloxan; format: in vivo, Wistar rats; details: alloxan-diabetic rats; for Blood sugar level, 0 day: day 0; for Blood sugar level, 0 day / Blood sugar level, 15 day / Blood sugar level, 30 day: doses: test compound 60 mg/kg, fenugreek seed powder 2 g/kg, crude alcohol extract 1 g/kg, pioglitazone 5 mg/kg; for Change in BSL (%): day 0 to day 30, numbers are printed as DECREASE, doses as in the row (60 mg/kg, 2 g/kg, 1 g/kg, 5 mg/kg); for Blood sugar level, 15 day: day 15 of treatment; for Blood sugar level, 30 day: day 30 of treatment
# Procedure: (§1) Male Wistar rats were injected with alloxan monohydrate (160 mg/kg i.p.) to induce diabetes. After 48 hours of injection blood glucose levels were determined using glucose estimation kits. Animals with blood glucose levels above 300 mg/dl were selected and divided into four groups of 6 rats in each group.
# Group 1: Non-Diabetic Control
# Group 2: Diabetes Control
# Group 3: Test Compound (60 mg/kg)
# Group 4: Pioglitazone (Standard Drug) (5 mg/kg)
# (§2) The animals were given respective drug solutions in stipulated dose, for 30 days. On the 0th, 15th and 30th day of treatment, the blood sugar levels and body weights were analyzed.
# Serum was obtained by centrifuging the blood obtained by retero-orbital blood withdrawal at 7000 rpm at 4° C. for 15 min. The serum obtained was collected for Blood sugar level determinations. The below table provides data on blood glucose levels of various groups.
# [2] = Body weight in early stages of diabetes induced with alloxan; format: in vivo, Wistar rats; details: alloxan-diabetic rats, test compound 60 mg/kg, pioglitazone 5 mg/kg; for Body weight, 0 day: day 0; for % Change in Body weight: day 0 to day 30, numbers are printed as INCREASE; for Body weight, 15 day: day 15; for Body weight, 30 day: day 30
# Procedure: as §1, §2
# There was a significant decrease in body weight in diabetic group as compared to non diabetic group. In the test compound treated group the body weight on 0 day was 185.16 & 240.83 on 30 day. […] There was a 29% increase in weight in the animals treated with the test compound that was an excellent result when compared to the 9% decrease in body weight of the untreated diabetic animals. The below table provides the percentage change in body weight of groups treated with respective treatments.
# [3] = Body composition (anabolic/androgenic activity) in castrated immature rats, 4 weeks of treatment; format: in vivo, Wistar rats
# Excerpt: Immature male Wistar rats weighing about 55 gm (±5 gm) were selected for the study. These rats were anesthetized by anesthetic ether and castrated. After 4 weeks of treatment, animals were sacrificed and the seminal vesicles, the ventral prostate, and the muscle levator ani carefully dissected and weighed. Body weight of the animals was registered at the beginning and at the end of the experiment. Increase in weight of seminal vesicles and ventral prostate indicates androgenic activity, whereas increase in weight of levator ani muscles was considered to indicate anabolic activity.
# serum testosterone = assay: Serum testosterone by radioimmunoassay in castrated immature rats after four weeks of treatment; format: in vivo, Wistar rats; details: daily treatment, 35 mg/kg p.o., RIA
# Procedure: In addition, to rule out any possibility of androgenic activity in the increase in body weight and muscle mass, the serum testosterone levels were measured.
# Immature male Wistar rats weighing about 55 gm (±5gm) were selected for the study. These rats were anesthetized by anesthetic ether and castrated. After four weeks of treatment, the blood was withdrawn from the rats by retro orbital puncture method and analyzed for serum testosterone, which was measured with the help of radioimmunoassay (RIA) kit.
# [4] = Double-blind, placebo-controlled clinical study: body composition (body fat) by bioelectric impedance and hydrostatic weighing; format: in vivo, human; details: volunteers, 500 mg supplementation, 8 weeks, resistance training 4 times/week
# Procedure: (§3) Subsequently, a double-blind, placebo-controlled study in 49 pre-trained volunteers was conducted to assess the safety and efficacy of the test compound. This 2 month study was conducted with supplementation of 500 mg of the test compound and the volunteers were on resistance training 4 times/week. During this study the effect of the test compound on body composition (fat content) and strength were evaluated.
# Body density was analyzed by bioelectric impedance and hydrostatic weighing. Based on these parameters fat free mass was calculated. From the FIG. 5 it is concluded that during the study period of 8 weeks, the test product reduced the body fat by 12%. This is a significant reduction.
# [5] = Double-blind, placebo-controlled clinical study: strength (isotonic bench and leg press); format: in vivo, human; details: volunteers, 500 mg, 2 month study, weight lifted
# Procedure: as §3
# Since this product was used to increase muscle mass, the effect of the test compound on the strength of the volunteers was evaluated. This was done by conducting isotonic repetitions of bench and leg press exercises. An increase in strength was determined based on an increase in weight lifted during these two exercises.
# 3T3-L1 cells = assay: Deoxy-D-Glucose, 2-(1-14C) uptake in 3T3-L1 cells (insulin-like action); format: cell-based
# Procedure: This example studies the time and dose dependant uptake of Deoxy-D-Glucose, 2-(1-^14C) uptake in 3T3-L1 cells treated with the test compound. 3T3-L1 cells were cultured (DMEM+FBS) in a 24 well plate and were treated with a 5 μg/ml and a 50 μg/ml dose of the test compound for 10 or 30 min. Cells treated with 100 nM insulin was used as a positive control. Radioactivity (cpm) was measured with TopCount (Packard).
# [6] = Levator ani muscle mass in alloxan-diabetic animals; format: in vivo, Wistar rats; details: alloxan-diabetic animals on treatment, FIG. 8
# Excerpt: A subsequent study was done to evaluate the impact of the increase in weight on the muscle content of the animals.
# The levitor ani muscles of these animals were checked for the drugs effect on muscle mass.
Compound,"Blood sugar level, 0 day [1] [mg/dL]",Change in BSL (%) [1],"Blood sugar level, 15 day [1] [mg/dL]","Blood sugar level, 30 day [1] [mg/dL]","Body weight, 0 day [2] [gm]",% Change in Body weight [2],"Body weight, 15 day [2] [gm]","Body weight, 30 day [2] [gm]",also measured
"CCc1ccc(CCOc2ccc(CC3SC(=O)NC3=O)cc2)nc1 (centres unmarked) [Pioglitazone, reference compound]",438.66 ± 6.37,35.8% DECREASE,376.33 ± 7.29,281 ± 5.92,165 ± 5.41,25% INCREASE,198.5 ± 6.45,207.83 ± 4.49,–
OCC1O[C@H](OCC2O[C@@H](O[C@@H]3C(CO[C@H]4OC(CO)[C@H](O)C(O)C4O)O[C@@H](O)C(O)C3O)C(O)C(O)[C@@H]2O)C(O)C(O)[C@H]1O (some centres unmarked) [test compound],416.5 ± 14.42,55%,294.5 ± 12.22,187 ± 9.33,185.16,29%,215.83 ± 6.05,240.83,"weight of the levator ani muscles (anabolic activity) ([3]; 4 weeks of treatment): significant increase; weights of organs of the male reproductive system (prostate, seminal vesicle and penis); androgenic activity ([3]; 4 weeks, 10 and 35 mg/kg): did not increase; change in body weight ([3]; four-week treatment, 10 mg/kg p.o): did not cause any change; body weight compared with control group ([3]; four-week treatment, 35 mg/kg p.o): significant rise; total serum testosterone levels (serum testosterone): no significant increase; reduction of body fat [4]: 12%; increase in strength compared to placebo, bench press [5]: 100%; increase in strength compared to placebo, leg press [5]: 80%; glucose uptake (3T3-L1 cells; dose of 5 μg/ml, 10 or 30 min): enhanced glucose uptake; Change in BSL (%) ([1]; listed as Test Compound): 55% DECREASE; Body weight, 0 day ([2]; listed as Test Compound): 185.16 ± 6.53 gm; % Change in Body weight ([2]; listed as Test Compound): 29% INCREASE; Body weight, 30 day ([2]; listed as Test Compound): 240.83 ± 6.42 gm; muscle mass (levitor ani muscles) [6]: significant increase"
"C[C@]12CC[C@H]3[C@@H](CCC4=CC(=O)CC[C@@]43C)[C@@H]1CC[C@@H]2O [testosterone, reference compound]",–,–,–,–,–,–,–,–,"body weight compared with control group ([3]; four weeks, 10 mg s.c biweekly): significant rise"
Insulin [reference compound],–,–,–,–,–,–,–,–,"stimulation of glucose uptake (3T3-L1 cells; 100 nM insulin, 10 min): 1.74 fold"
